The text below walks through data of publication PMC4685510, “A Cell Biologist’s Field Guide to Aurora Kinase Inhibitors” (Frontiers in Oncology, 2015).

Values joined by “and” are separate entries in the source; they are usually repeats but may differ in a detail not shown here. Identical values can stand only once. Like-named read-outs stand apart in the source and are kept apart here.

What all share (experiment): biochemical
Common to all, as to type: biochemical

For test [1], the target named is T1, 363 human kinases (including Aurora A/B/C) (Homo sapiens, UniProt Q56UN5).
T1 sequence (Q56UN5 1-1328): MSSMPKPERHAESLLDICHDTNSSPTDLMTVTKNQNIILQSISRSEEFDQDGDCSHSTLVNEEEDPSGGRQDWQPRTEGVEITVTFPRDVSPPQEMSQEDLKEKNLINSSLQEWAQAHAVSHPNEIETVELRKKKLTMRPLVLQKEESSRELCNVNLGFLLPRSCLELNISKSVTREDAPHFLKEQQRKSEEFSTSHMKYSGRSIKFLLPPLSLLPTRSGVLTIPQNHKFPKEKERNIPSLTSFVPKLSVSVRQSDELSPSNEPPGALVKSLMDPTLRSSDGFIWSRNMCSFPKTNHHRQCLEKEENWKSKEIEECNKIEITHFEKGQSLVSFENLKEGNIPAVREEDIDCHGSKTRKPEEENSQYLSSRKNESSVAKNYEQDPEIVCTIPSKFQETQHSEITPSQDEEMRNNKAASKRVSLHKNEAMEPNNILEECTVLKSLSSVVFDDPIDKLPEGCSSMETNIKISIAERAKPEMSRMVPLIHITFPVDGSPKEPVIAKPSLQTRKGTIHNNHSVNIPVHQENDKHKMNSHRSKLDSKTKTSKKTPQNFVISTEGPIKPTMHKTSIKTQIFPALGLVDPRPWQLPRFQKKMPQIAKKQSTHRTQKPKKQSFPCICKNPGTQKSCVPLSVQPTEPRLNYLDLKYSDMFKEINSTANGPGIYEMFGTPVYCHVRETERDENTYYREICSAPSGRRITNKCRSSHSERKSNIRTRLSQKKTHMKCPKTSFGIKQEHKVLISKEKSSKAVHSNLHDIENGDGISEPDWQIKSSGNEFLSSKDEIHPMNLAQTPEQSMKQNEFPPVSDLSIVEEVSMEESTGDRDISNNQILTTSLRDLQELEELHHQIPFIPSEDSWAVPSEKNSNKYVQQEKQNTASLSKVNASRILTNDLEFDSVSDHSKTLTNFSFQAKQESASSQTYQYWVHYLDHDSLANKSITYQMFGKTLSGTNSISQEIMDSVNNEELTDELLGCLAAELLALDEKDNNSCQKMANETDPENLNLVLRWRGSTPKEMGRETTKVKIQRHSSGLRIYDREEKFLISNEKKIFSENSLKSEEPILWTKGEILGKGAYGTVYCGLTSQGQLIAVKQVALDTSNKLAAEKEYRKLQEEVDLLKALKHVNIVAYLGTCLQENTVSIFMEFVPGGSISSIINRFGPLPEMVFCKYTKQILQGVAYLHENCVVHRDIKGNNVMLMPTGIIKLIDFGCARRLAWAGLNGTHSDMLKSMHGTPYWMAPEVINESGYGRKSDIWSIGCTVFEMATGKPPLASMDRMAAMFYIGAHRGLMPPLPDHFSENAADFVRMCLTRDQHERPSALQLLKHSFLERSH
Particulars: YSK4/MAP3K19; for remaining activity at 0.5 µM / remaining activity at 0.1 µM: read-out: % Enzyme Activity (relative to DMSO controls); for remaining activity at 0.1 µM: 100 nM.
Source text: (§1) However, the Aurora A/B selectivity ratios derived from our in vitro and in vivo data can be compared to prioritize inhibitors.

Test [2] addresses T2, 363 human kinases (including Aurora A/B/C) (Homo sapiens, UniProt P46734).
T2 sequence (P46734 1-347): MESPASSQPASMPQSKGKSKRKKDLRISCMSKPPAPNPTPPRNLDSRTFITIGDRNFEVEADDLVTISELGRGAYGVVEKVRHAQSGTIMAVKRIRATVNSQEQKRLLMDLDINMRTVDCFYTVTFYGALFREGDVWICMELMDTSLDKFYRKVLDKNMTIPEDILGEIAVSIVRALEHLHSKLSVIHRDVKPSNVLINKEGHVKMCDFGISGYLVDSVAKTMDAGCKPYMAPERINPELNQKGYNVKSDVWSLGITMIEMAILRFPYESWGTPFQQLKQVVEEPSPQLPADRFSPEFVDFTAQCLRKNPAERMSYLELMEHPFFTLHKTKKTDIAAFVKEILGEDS
Particulars: MEK3; for remaining activity at 0.5 µM / remaining activity at 0.1 µM: read-out: % Enzyme Activity (relative to DMSO controls); for remaining activity at 0.1 µM: 100 nM.
Source text: as §1

Test [3] deals with 363 human kinases (including Aurora A/B/C) (Homo sapiens, UniProt P09769). Particulars: FGR, [ATP] 50 µM; for remaining activity at 0.5 µM / remaining activity at 0.1 µM: read-out: % Enzyme Activity (relative to DMSO controls); for remaining activity at 0.1 µM: 100 nM.
Source text: as §1
In test [4] the target is 363 human kinases (including Aurora A/B/C) (Homo sapiens, UniProt Q07912). To be noted: ACK1, [ATP] 100 µM; for remaining activity at 0.5 µM / remaining activity at 0.1 µM: read-out: % Enzyme Activity (relative to DMSO controls); for remaining activity at 0.1 µM: 100 nM.
Source text: as §1
The target in test [5] is T3, 363 human kinases (including Aurora A/B/C) (Homo sapiens, UniProt Q13470).
T3 sequence (Q13470 1-666): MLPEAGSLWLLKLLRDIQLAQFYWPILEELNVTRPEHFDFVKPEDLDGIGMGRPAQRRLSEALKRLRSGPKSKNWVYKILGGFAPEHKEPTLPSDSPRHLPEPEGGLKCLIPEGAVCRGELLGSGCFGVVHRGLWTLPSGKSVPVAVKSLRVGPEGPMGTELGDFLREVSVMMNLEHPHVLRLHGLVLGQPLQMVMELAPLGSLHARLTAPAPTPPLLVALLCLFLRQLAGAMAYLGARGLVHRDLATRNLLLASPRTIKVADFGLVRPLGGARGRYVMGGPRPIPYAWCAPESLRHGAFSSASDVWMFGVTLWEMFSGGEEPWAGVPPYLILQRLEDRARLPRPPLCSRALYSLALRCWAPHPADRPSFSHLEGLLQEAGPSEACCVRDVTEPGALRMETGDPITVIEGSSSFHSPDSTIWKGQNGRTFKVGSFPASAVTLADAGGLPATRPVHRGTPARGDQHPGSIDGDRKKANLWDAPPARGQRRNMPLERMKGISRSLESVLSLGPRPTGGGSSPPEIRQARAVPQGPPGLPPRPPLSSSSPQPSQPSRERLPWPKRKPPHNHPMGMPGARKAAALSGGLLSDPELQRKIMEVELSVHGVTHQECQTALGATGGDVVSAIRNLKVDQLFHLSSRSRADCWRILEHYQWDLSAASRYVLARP
To be noted: TNK1; for remaining activity at 0.5 µM / remaining activity at 0.1 µM: read-out: % Enzyme Activity (relative to DMSO controls); for remaining activity at 0.1 µM: 100 nM.
Source text: as §1

The target in test [6] is 363 human kinases (including Aurora A/B/C) (Homo sapiens, UniProt Q9H792). To be noted: PEAK1; for remaining activity at 0.5 µM / remaining activity at 0.1 µM: read-out: % Enzyme Activity (relative to DMSO controls); for remaining activity at 0.1 µM: 100 nM.
Source text: as §1
For test [7], the system named is 363 human kinases (including Aurora A/B/C).
Source text: as §1
Test [8] deals with 363 human kinases (including Aurora A/B/C) (Homo sapiens, UniProt Q16816). Particulars: PHKg1; for remaining activity at 0.5 µM / remaining activity at 0.1 µM: read-out: % Enzyme Activity (relative to DMSO controls); for remaining activity at 0.1 µM: 100 nM.
Source text: as §1
Test [9] deals with 363 human kinases (including Aurora A/B/C) (Homo sapiens, UniProt O75582). Particulars: MSK1/RPS6KA5; for remaining activity at 0.5 µM / remaining activity at 0.1 µM: read-out: % Enzyme Activity (relative to DMSO controls); for remaining activity at 0.1 µM: 100 nM.
Chain of 363 human kinases (including Aurora A/B/C) (Homo sapiens, UniProt O75582) (O75582 whole entry): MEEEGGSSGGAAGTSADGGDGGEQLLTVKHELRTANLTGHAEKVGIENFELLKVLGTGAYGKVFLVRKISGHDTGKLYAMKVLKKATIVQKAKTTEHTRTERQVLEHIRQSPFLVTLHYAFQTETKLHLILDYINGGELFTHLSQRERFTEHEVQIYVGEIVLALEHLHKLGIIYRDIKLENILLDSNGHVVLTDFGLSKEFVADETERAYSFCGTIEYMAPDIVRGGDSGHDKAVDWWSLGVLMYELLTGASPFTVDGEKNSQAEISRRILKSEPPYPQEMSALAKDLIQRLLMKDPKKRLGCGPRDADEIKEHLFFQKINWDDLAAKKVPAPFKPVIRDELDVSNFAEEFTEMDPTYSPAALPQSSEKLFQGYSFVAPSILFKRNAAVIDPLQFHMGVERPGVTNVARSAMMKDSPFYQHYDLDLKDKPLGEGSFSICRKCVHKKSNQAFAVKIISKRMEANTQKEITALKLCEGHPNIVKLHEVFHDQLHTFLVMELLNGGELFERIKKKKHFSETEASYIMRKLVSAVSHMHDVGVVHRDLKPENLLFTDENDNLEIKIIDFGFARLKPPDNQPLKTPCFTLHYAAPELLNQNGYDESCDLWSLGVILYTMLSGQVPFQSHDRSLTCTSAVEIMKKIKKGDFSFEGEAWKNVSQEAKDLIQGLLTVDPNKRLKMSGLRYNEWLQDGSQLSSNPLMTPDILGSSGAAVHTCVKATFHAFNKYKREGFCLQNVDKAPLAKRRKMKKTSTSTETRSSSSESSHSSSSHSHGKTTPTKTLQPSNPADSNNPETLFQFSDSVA
Source text: as §1

Chain of 363 human kinases (including Aurora A/B/C) (Homo sapiens, UniProt P09769) (P09769 whole entry): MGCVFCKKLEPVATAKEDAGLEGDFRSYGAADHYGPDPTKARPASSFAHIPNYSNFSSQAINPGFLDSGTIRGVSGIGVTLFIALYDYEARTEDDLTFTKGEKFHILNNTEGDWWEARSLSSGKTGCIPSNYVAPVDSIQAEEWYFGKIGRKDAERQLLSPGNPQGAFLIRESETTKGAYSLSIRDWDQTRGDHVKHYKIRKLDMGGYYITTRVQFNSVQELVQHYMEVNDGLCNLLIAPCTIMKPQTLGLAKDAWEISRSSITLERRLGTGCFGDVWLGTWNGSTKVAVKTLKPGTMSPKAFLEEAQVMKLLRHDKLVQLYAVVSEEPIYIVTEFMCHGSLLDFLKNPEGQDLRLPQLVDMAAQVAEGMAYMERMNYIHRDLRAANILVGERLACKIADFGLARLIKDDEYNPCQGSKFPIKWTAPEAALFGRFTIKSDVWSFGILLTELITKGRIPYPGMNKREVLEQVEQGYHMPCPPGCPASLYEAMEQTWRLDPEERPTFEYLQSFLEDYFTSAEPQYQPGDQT
Chain of 363 human kinases (including Aurora A/B/C) (Homo sapiens, UniProt Q9H792) (Q9H792 whole entry): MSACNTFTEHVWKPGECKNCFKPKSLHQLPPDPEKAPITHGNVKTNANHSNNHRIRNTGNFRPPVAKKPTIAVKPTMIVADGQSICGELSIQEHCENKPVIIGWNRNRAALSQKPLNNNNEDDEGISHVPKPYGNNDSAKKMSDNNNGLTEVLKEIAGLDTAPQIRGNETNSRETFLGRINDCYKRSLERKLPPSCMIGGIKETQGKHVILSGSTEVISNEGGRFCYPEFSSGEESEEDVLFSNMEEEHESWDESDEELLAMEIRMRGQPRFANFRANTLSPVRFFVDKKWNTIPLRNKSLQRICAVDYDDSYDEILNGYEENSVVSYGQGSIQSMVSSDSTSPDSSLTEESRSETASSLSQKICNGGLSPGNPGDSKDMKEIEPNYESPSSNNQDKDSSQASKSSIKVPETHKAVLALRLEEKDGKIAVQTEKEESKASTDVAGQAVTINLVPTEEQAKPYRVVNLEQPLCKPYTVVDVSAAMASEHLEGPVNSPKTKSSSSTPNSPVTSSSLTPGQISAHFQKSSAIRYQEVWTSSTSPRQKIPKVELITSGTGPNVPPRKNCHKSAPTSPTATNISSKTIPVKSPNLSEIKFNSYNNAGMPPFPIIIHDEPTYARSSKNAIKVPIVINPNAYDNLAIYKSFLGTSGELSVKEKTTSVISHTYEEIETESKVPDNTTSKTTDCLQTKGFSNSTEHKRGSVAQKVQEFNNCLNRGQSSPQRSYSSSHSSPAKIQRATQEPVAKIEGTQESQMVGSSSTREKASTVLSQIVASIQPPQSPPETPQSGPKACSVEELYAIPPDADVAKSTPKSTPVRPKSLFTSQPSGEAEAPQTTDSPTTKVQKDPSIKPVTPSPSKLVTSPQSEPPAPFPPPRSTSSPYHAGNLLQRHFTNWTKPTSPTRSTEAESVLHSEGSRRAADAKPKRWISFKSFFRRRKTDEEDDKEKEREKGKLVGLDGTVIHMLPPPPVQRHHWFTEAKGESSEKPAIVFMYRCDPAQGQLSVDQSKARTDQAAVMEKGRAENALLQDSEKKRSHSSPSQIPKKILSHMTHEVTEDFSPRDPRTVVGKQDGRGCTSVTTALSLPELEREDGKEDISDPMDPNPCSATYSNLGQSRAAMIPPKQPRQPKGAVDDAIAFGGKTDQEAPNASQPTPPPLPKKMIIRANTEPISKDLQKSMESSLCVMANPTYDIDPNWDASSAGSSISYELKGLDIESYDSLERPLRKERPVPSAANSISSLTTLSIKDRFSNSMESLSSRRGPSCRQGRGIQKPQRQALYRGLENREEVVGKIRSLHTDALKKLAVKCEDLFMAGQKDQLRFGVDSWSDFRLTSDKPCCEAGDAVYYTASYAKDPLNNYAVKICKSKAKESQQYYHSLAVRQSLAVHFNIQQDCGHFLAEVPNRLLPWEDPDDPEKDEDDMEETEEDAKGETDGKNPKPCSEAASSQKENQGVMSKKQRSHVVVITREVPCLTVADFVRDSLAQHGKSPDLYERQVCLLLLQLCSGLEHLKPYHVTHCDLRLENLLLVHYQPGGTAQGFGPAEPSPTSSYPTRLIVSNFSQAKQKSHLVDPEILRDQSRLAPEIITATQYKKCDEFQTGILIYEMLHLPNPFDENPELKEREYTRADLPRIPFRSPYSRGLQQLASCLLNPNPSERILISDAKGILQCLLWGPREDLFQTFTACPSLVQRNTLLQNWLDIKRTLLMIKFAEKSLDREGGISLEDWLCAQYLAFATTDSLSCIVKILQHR
Chain of 363 human kinases (including Aurora A/B/C) (Homo sapiens, UniProt Q16816) (Q16816 whole entry): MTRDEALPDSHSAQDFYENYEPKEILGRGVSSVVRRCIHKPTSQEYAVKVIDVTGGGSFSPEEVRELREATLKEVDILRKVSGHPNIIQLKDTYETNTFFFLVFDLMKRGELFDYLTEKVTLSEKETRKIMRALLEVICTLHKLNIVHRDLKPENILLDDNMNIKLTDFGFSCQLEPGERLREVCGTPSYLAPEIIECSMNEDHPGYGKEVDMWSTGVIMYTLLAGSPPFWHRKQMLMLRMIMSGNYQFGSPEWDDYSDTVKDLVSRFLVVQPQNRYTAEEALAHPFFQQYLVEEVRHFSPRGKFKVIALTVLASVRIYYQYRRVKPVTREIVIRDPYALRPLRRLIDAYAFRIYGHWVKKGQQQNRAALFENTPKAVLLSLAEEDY
Chain of 363 human kinases (including Aurora A/B/C) (Homo sapiens, UniProt Q07912) (Q07912 whole entry): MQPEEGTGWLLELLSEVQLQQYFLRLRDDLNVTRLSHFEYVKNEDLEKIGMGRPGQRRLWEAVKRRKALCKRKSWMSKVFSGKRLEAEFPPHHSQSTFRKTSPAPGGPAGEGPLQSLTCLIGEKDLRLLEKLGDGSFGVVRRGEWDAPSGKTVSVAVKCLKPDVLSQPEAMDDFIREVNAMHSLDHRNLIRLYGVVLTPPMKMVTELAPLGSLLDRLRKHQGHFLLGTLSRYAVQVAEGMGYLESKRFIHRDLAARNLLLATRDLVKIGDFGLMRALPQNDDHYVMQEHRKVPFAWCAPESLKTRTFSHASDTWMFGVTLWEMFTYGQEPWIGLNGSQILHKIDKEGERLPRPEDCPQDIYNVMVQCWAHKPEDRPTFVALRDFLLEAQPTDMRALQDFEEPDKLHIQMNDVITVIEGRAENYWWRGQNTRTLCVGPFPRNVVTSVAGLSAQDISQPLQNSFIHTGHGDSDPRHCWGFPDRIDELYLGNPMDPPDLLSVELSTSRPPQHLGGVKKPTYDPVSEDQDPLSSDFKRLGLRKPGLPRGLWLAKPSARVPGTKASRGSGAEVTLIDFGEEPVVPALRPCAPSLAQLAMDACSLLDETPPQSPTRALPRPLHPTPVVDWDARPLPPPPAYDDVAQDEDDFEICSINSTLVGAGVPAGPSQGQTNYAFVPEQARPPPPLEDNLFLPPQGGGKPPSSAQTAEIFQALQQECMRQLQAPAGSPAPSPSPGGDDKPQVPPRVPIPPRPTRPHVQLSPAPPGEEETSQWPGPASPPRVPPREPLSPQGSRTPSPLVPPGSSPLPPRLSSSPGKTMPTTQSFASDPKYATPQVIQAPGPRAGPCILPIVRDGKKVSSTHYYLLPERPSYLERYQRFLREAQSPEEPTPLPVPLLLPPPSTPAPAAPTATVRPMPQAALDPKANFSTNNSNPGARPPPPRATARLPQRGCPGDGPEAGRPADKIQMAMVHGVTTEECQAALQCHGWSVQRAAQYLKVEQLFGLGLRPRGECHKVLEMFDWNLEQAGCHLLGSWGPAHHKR

On to `O=C(c1cccc(Cl)c1F)N1CCN(Cc2cccc(Nc3nccs3)n2)CC1` [MK-8745], for which the “% Enzyme Activity (relative to DMSO controls)” value is reported as 88.95% in test [1] (500 nM); 72.05% in test [2] (500 nM); 35.97% in [3] (500 nM); 50.10% in test [4] (500 nM); 75.54% in test [5] (500 nM); 38.63% in [6] (500 nM). The “% Enzyme Activity (relative to DMSO controls)” value in test [7] (LYN B, 500 nM) was 85.04% and 84.52%; in test [7] (PKCb2, 500 nM) it was 98.11% and 97.15%; in [7] (PKG1b, 500 nM) it was 109.42% and 102.59%; in test [8] (500 nM) it was 90.90%; in [9] (500 nM), 93.34%. Moreover, the remaining activity at 0.5 µM in test [1] (500 nM) came to 91.4%; in test [2] (500 nM), 75.7%; in [3] (500 nM), 36.3%; in test [4] (500 nM), 51.9%; in test [5] (500 nM), 77.7%; in test [6] (500 nM) it was 39.1%. The remaining activity at 0.5 µM is 93.3% in test [8] (500 nM) and 96.3% in test [9] (500 nM). In addition, the “Kinases inhibited at >65% of control” value in test [7] (500 nM) is listed as “Aurora A, AXL, BRK, DDR1, EphA6, GSK3α/β, IRAK1, JNK1, LKB1, ROS1, Trk A/B/C, TYRO3, YES”. Also, the “Number of kinases inhibited at >65% of control” value in [7] (500 nM) came out at 16 kinases.

`CCn1cc(-c2ccnc3[nH]c(-c4cccc(CN(C)C)c4)cc23)c(-c2ccc(NC(=O)N(C)C)cc2)n1` [GSK1070916]: the remaining activity at 0.1 µM is 99.2% in [1]; 105% in test [2]; 97.8% in [3]; 83.9% in test [4]; 90.7% in test [5]; 90% in test [6]. In addition, the results for the remaining activity at 0.1 µM in [8] and in test [9] were 95.6% and 101%, respectively. Also, the “Kinases inhibited ≥65% of control” value in test [7] (100 nM, 363 human kinases, [ATP] ~ Km(ATP)) is “Aurora A and B as well as DDR1”.

As for `O=C(O)[C@]1(Cc2cccc(Nc3nccs3)n2)CC[C@@H](Oc2cccc(Cl)c2F)CC1` [MK-5108], the remaining activity at 0.1 µM in test [1] amounted to 16.1%; in [2] it was 89.7%; in test [3], 22.9%; in [4] it was 15.8%; in test [5], 22.9%; in test [6], 30.5%. For the same compound, the remaining activity at 0.1 µM in test [8] turned out to be 99.1%; in test [9], 99.7%. The remaining activity at 0.5 µM in [1] (500 nM) was determined as 8.95%; in [2] (500 nM), 99.7%; in [3] (500 nM), 6.36%; in test [4] (500 nM) it was 1.62%; in test [5] (500 nM), 6.3%; in test [6] (500 nM), 11.6%. The remaining activity at 0.5 µM in test [8] (500 nM) worked out at 82%; in test [9] (500 nM) it was 86.8%. Besides, the “Number of kinases inhibited at >65% of control” value in [7] is listed as 75 kinases. Further, the “Number of kinases inhibited at >65% of control (including the Aurora kinases)” value in [7] is reported as 32 kinases.
